The test system of the test is INS-1 cells. Description: Cell survival assay, intracellular ATP (CellTiter-Glo), INS-1 cells treated with Tm. Format: cell-based, rat. Conditions: for EC50: read-out: EC50; for improvement of EC50 value over the corresponding ethylene derivative: methylene vs ethylene linker (9e vs 8d; 11d vs 11b). As for the experimental part:
A structure-activity-relationship (SAR) study was thus conducted to improve the weak potency of lead compound 1. Newly synthesized or commercially available compounds were tested for their β-cell-protective activity against ER stress in rat INS-1 β-cells. […] The maximum activities and the concentrations that reach half-maximal activity (EC50) of the compounds were evaluated by the degree of increase in viability of INS-1 cells co-treated with the compounds in the presence of Tm compared with Tm treatment alone. Maximum activity value in the tables is reported as % rescue from Tm (0.1 μg/mL)-induced reduction of cell viability. The values for Tm treatment alone and control (DMSO, without Tm) treatment are designated as 0% and 100%, respectively in all tables. EC50 values (the concentrations that reach half-maximal activity) for INS-1 cell viability were calculated with GraphPad Prism from the data of ten 2-fold serial titration points in all tables. All experiments were performed in triplicate in all tables.
INS-1 cells were cultured in RPMI 1640 (Corning, N.Y., USA) supplemented with 10% FBS (Atlanta Biologicals, Norcross, Ga.), HEPES (10 mM, Life Technologies, CA, USA), sodium pyruvate (1 mM, Corning), 2-mercaptoethanol (50 μM, Sigma, St Louis, Mo., USA) and antibiotics (100 UI/mL penicillin and 100 μg/mL streptomycin, Corning). βTC6 cells were cultured in DMEM (Corning) with 15% FBS, sodium pyruvate (1 mM, Corning), non-essential amino acids (1 mM, Thermo, Ill., USA), GlutaMAX (1 mM, Life Technologies) and antibiotics (100 UI/mL penicillin and 100 μg/mL streptomycin). All cells were grown at 37° C. in a humidified 5% CO2 atmosphere.
INS-1 cells or βTC6 cells were seeded at 3×10^3 cells/well in a 384-well plate and treated with compounds at the indicated concentrations. After 3 d treatment, the medium was aspirated and 20 μL/well of CellTiter-Glo reagent (Promega, WI, USA) was added for the detection of intracellular ATP levels. Cell viability was measured with an EnVision multilabel plate reader (PerkinElmer, MA, USA).

The mark [1] stands for this setting: Table 3, INS-1 cells, Tm 0.1 μg/mL, 72 h, Tm alone 0%, DMSO control 100%.
Setting [2] is: Table 2, INS-1 cell viability, Tm 0.1 μg/mL, 72 h.
[3] abbreviates: Table 2, INS-1 cells, Tm 0.1 μg/mL, 72 h, Tm alone 0%, DMSO control 100%.
[4] abbreviates: Table 3, INS-1 cell viability, Tm 0.1 μg/mL, 72 h.
Where [5] appears, read: Table 5, INS-1 cell viability, Tm 0.1 μg/mL, 72 h.
The mark [6] stands for this setting: Table 5, INS-1 cells, Tm 0.1 μg/mL, 72 h, Tm alone 0%, DMSO control 100%.
Where [7] appears, read: INS-1 cells, Tm-induced ER stress.
Setting [8] is: Table 4, INS-1 cell viability, Tm 0.1 μg/mL, 72 h.
The mark [9] stands for this setting: Table 4, INS-1 cells, Tm 0.1 μg/mL, 72 h, Tm alone 0%, DMSO control 100%.

Each structure is given as a SMILES string. Like-named read-outs stand apart in the source and are kept apart here.

As to `O=C(NCCc1ccccc1)c1cccc([N+](=O)[O-])c1` [Compound 10d], the “Maximum activity (% rescue)” value under setting [1] is <0 % rescue.
As a reminder, the EC50 is the concentration that produces a half-maximal response. For `O=C(NCc1ccc(Cl)c(Cl)c1)c1ccc2c(c1)OCCO2` [Compound 9f], the 50% effective concentration (EC50) under setting [2] stood at 3.6 ± 0.9 µM. Besides, under setting [3], the “Maximum activity (% rescue)” value is listed as 68% ± 10%.
Take `C#CCOc1ccc(C(=O)NCCc2ccccc2)cc1` [Compound 10i]: under setting [4], the EC50 is > 30 µM. Further, the “Maximum activity (% rescue)” value under setting [1] was 54% ± 8%.
For `CS(=O)(=O)Nc1cccc(C(=O)NCCc2ccccc2)c1` [Compound 10g] the same measures were 25 ± 2.1 µM and 24% ± 8%.
For `O=C(NCc1cccc(Cl)c1)c1ccc(CN2CCCCC2)cc1` [Compound 12g], under setting [5], the half-maximal effective concentration (EC50) stood at 2.2 ± 0.3 µM. Also, under setting [6], the “Maximum activity (% rescue)” value was 80% ± 9%.
Take `O=C(NCc1ccc(Cl)cc1)c1cccc(CN2CCCCC2)c1` [Compound 12e]: under setting [5], the EC50 turned out to be 0.24 ± 0.06 µM. In addition, the “Maximum activity (% rescue)” value under setting [6] is 93% ± 13%.
For `O=C(NCCc1ccccc1)c1ccc(Cl)c(Cl)c1` [Compound 10m], the 50% effective concentration (EC50) under setting [4] was determined as 17 ± 6.1 µM. Moreover, under setting [1], the “Maximum activity (% rescue)” value was 42% ± 11%.
For the compound `O=C(NCCc1ccccc1)c1cc(F)c(F)c(F)c1F` [Compound 10p], the “Maximum activity (% rescue)” value under setting [1] was <0 % rescue.
For the compound `O=C(NCc1cccc(Br)c1)c1ccc(CN2CCCCC2)cc1` [Compound 12h], the EC50 under setting [5] amounted to 4.9 ± 0.7 µM. For the same compound, the “Maximum activity (% rescue)” value under setting [6] is 81% ± 12%.
In the case of `O=C(NCc1ccccc1Cl)c1cccc(CN2CCCCC2)c1` [Compound 12c], the EC50 under setting [5] came to 2.04 ± 0.18 µM. Under setting [6], the “Maximum activity (% rescue)” value is 93% ± 7%.
In the same order, the values of `O=C(NCc1ccccc1Cl)c1ccc(CN2CCCCC2)cc1` [Compound 12f] are 13 ± 1.6 µM and 87% ± 15%.
Take `O=C(NCc1ccc(Cl)cc1)c1ccc2c(c1)OCCO2` [Compound 9e]: the “improvement of EC50 value over the corresponding ethylene derivative” value is listed as ~6 fold. Further, under setting [7], the “maximum activity (β-cell-protective activity)” value was found to be 69% and the EC50 came out at 2.8 µM. For the same compound, under setting [3], the “Maximum activity (% rescue)” value is 69% ± 12%.
`O=C(NCc1cccc(C(F)(F)F)c1)c1cccc(CN2CCCCC2)c1` [Compound 13c]: the EC50 under setting [5] was found to be 0.246 ± 0.043 µM. The “Maximum activity (% rescue)” value under setting [6] was 91% ± 14%.
For `O=C(NCc1ccccc1Cl)c1ccc2c(c1)OCCO2` [Compound 9a], the EC50 under setting [2] is 25 ± 6.9 µM. In addition, the “Maximum activity (% rescue)” value under setting [3] is 43% ± 12%.
Consider `O=C(NCc1ccccc1)c1cccc(CN2CCCCC2)c1` [Compound 12b], for which, under setting [5], the EC50 was 0.352 ± 0.062 µM. Moreover, under setting [6], the “Maximum activity (% rescue)” value is on record as 95% ± 8%.
On to `O=C(NCc1cccc(Cl)c1)c1ccc2c(c1)OCCO2` [Compound 9c], for which the EC50 under setting [2] worked out at 9.5 ± 1.2 µM. Also, the “Maximum activity (% rescue)” value under setting [3] was 57% ± 11%.
Consider `O=C(NCc1cccc(Br)c1)c1ccc2c(c1)OCCO2` [Compound 9d], for which the EC50 under setting [2] stood at 5.5 ± 0.7 µM. The “Maximum activity (% rescue)” value under setting [3] is 69% ± 9%.
Take `COc1ccc(C(=O)NCCc2cccc(Cl)c2)cc1OC` [Compound 8h]: the EC50 (Table 1, INS-1 cell viability, Tm 0.1 μg/mL, 72 h) came out at 24 ± 2.1 µM. For the same compound, the “Maximum activity (% rescue)” value (Table 1, INS-1 cells, Tm 0.1 μg/mL, 72 h, Tm alone 0%, DMSO control 100%) is listed as 46% ± 17%.
`O=C(NCCc1cccc(Cl)c1)c1ccc2c(c1)OCCO2` [Compound 1, N-(3-chlorophenethyl)-2,3-dihydrobenzo[b][1,4]dioxine-6-carboxamide]: the “maximum activity (β-cell-protective activity)” value under setting [7] came out at 42%. Also, the EC50 (Rattus norvegicus, INS1, INS-1 cells, Tm-induced ER stress) was 21 µM and the EC50 (Rattus norvegicus, INS1, Table 1, INS-1 cell viability, Tm 0.1 μg/mL, 72 h) amounted to 21 ± 5.7 µM. In addition, the Emax (Rattus norvegicus, INS1, Table 1, INS-1 cells, Tm 0.1 μg/mL, 72 h, Tm alone 0%, DMSO control 100%, read-out: Maximum activity (% rescue)) worked out at 42%.
For `O=C(NCc1ccc(Cl)cc1)c1ccccc1CN1CCCCC1` [Compound 12a], the EC50 under setting [5] stood at 6.9 ± 1.2 µM. For the same compound, under setting [6], the “Maximum activity (% rescue)” value is 73% ± 13%.
In the case of `O=C(NCCc1ccc(Cl)cc1)c1ccc(CN2CCCCC2)cc1` [Compound 11a], the EC50 under setting [8] came to 21 ± 4.2 µM. The “Maximum activity (% rescue)” value under setting [9] is 82% ± 10%.
In the case of `Cc1ccc(C(=O)NCCc2ccccc2)cc1` [Compound 10h], under setting [4], the EC50 was 20 ± 5.4 µM. Also, the “Maximum activity (% rescue)” value under setting [1] is 25% ± 5%.
Consider `O=C(NCc1ccccc1Br)c1ccc2c(c1)OCCO2` [Compound 9b], for which the EC50 under setting [2] was 25 ± 2.1 µM. The “Maximum activity (% rescue)” value under setting [3] is recorded as 38% ± 14%.
For the compound `O=C(NCCc1ccccc1)c1cccc(F)c1` [Compound 10c], under setting [1], the “Maximum activity (% rescue)” value is reported as <0 % rescue.
On to `Nc1cccc(C(=O)NCCc2ccccc2)c1` [Compound 10e], for which the “Maximum activity (% rescue)” value under setting [1] is <0 % rescue.
Take `COc1ccc(C(=O)NCCc2ccccc2)cc1C` [Compound 10n]: the EC50 under setting [4] amounted to 15 ± 3.2 µM. Further, the “Maximum activity (% rescue)” value under setting [1] is given as 56% ± 8%.
In the same order, the values of `CC(C)Sc1ccccc1C(=O)NCCc1ccccc1` [Compound 10b] are > 30 µM and 30% ± 8%.
`O=C(NCCc1ccc(Cl)c(Cl)c1)c1ccc(CN2CCCCC2)cc1` [Compound 11b]: the EC50 under setting [7] worked out at 24 ± 2.7 µM. Further, under setting [9], the “Maximum activity (% rescue)” value is on record as 71% ± 11%.
As to `O=C(NCCc1ccccc1)c1ccc(CN2CCCCC2)cc1` [Compound 10l], under setting [7], the “maximum activity (β-cell-protective activity)” value was determined as 87%. Besides, the EC50 under setting [7] is 21 µM, the EC50 under setting [4] is 21 ± 3.5 µM and the 50% effective concentration (EC50) under setting [8] came out at 21 ± 3.5 µM. Besides, the “Maximum activity (% rescue)” value is, setting by setting: under setting [1], 87% ± 9%; under setting [9], 87% ± 6%.
Turning to `Cc1ccccc1C(=O)NCCc1ccccc1` [Compound 10a], under setting [1], the “Maximum activity (% rescue)” value is 6% ± 5%.
Regarding `O=C(NCCc1ccccc1)c1ccc(F)c(F)c1F` [Compound 10o], the concentration giving a half-maximal response (EC50) under setting [4] stood at 9.9 ± 2.1 µM. Moreover, under setting [1], the “Maximum activity (% rescue)” value was 23% ± 6%.
Regarding `O=C(NCCc1ccccc1)c1ccc(CN2CCCC2)cc1` [Compound 10k], the “maximum activity (β-cell-protective activity)” value under setting [7] is listed as 31%. The EC50 under setting [4] came out at 11 ± 1.9 µM. Also, the “Maximum activity (% rescue)” value under setting [1] is recorded as 31% ± 7%.
For the compound `COc1ccc(CNC(=O)c2cccc(CN3CCCCC3)c2)cc1` [Compound 13b], the EC50 under setting [5] worked out at 1.12 ± 0.21 µM. Under setting [6], the “Maximum activity (% rescue)” value is reported as 93% ± 5%.
Consider `CN(C)S(=O)(=O)c1ccc(C(=O)NCCc2ccccc2)cc1` [Compound 10j], for which the concentration for a half-maximal effect (EC50) under setting [4] came out at 19 ± 2.1 µM. Moreover, the “Maximum activity (% rescue)” value under setting [1] was 37% ± 6%.
With `O=C(NCc1ccc(Cl)c(Cl)c1)c1ccc(CN2CCCCC2)cc1` [Compound 11d], the “improvement of EC50 value over the corresponding ethylene derivative” value is recorded as 13 fold. Moreover, under setting [7], the half-maximal effective concentration (EC50) worked out at 1.8 ± 0.2 µM. In addition, the “Maximum activity (% rescue)” value under setting [9] is recorded as 78% ± 10%.
As for `O=C(NCc1cccc(Cl)c1)c1cccc(CN2CCCCC2)c1` [Compound 12d], the EC50 under setting [5] came out at 0.405 ± 0.057 µM. Further, the “Maximum activity (% rescue)” value under setting [6] is 90% ± 11%.
As for `COc1cccc(CNC(=O)c2cccc(CN3CCCCC3)c2)c1` [Compound 13a], the EC50 under setting [5] turned out to be 0.964 ± 0.135 µM. In addition, under setting [6], the “Maximum activity (% rescue)” value is given as 92% ± 10%.
Turning to `CCOc1cccc(C(=O)NCCc2ccccc2)c1` [Compound 10f], the half-maximal effective concentration (EC50) under setting [4] amounted to 26 ± 4.5 µM. For the same compound, the “Maximum activity (% rescue)” value under setting [1] is reported as 49% ± 11%.
On to `O=C(NCc1ccc(Cl)cc1)c1ccc(CN2CCCCC2)cc1` [Compound 11c], for which, under setting [8], the EC50 turned out to be 9.5 ± 1.1 µM. Besides, the “Maximum activity (% rescue)” value under setting [9] is recorded as 77% ± 7%.

These data come from US11203582B2, “Benzamide derivatives for inhibiting endoplasmic reticulum (ER) stress” (The Board of Regents of the University of Oklahoma, priority 2017, dated 2021).
